Reference: US10428080B2, “TBK/IKK inhibitor compounds and uses thereof” (Merck Patent GmbH, priority 2015, dated 2019)
Where a name gives a salt, the structure may show the parent alone.

How the values were obtained:
[1] = target: T1, IKKε (Homo sapiens, UniProt Q14164); test: IKKe Biochemical Assay; conditions: read-out: IKKε IC50
T1 sequence (Q14164 1-716): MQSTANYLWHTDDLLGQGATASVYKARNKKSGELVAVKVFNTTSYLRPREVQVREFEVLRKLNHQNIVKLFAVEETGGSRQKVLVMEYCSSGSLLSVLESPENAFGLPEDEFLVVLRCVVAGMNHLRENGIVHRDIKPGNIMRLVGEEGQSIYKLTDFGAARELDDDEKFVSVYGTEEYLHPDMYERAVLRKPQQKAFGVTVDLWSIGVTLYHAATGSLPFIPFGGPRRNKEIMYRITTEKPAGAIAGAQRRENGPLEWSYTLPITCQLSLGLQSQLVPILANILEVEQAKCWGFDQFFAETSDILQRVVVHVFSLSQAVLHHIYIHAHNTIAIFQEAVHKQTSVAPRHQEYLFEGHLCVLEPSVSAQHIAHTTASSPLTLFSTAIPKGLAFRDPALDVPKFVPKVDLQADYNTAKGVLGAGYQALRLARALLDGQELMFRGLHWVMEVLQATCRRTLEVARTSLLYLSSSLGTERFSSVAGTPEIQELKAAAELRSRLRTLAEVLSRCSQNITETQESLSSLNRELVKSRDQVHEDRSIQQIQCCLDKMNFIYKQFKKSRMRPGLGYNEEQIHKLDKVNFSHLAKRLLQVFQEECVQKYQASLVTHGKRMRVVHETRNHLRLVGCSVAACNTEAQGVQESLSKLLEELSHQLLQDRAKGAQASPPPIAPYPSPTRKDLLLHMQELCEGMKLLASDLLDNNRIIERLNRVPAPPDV
Procedure: (§1) Test compounds were transferred into Labcyte polypropylene 384 well plates (P055-25) and diluted to 3 mM using DMSO. 3 mM test compounds were dispensed using Labcyte ECHO dose response module into (Greiner 784075 plates (columns 3-12 and 13-22, 10 point 1:4) so that high concentration was 30 uM final. 100 uM of a reference compound (1 uM final high concentration). Backfilling was performed if necessary so that all wells contain 1% DMSO final: […]
(§2) add 75 nl DMSO/well into columns 1, 2 and 24 using Labcyte Echo. add 75 nl 1.0 mM staurosporine/well into column 23 using Labcyte Echo (10 uM final) add 4.5 ul enzyme/well using multidrop dispenser add 3 ul substrate/well using multidrop dispenser incubate at 25° C. for 90 min. add 7.5 ul 2× stop buffer read on labchip ez reader II using IKKε. job
(§3) Raw data files were opened in the Caliper LabChip Reviewer program (Version 3.0.265.0 SP2) and peak assignments were adjusted to reflect “substrate first” with the software's post-run analysis options. A spline-fit baseline was applied using the software's analysis algorithm.

[2] = target: T2, TBK1 (Homo sapiens, UniProt Q9UHD2); test: TBK Biochemical Assay; conditions: read-out: TBK1 IC50
T2 sequence (Q9UHD2 1-729): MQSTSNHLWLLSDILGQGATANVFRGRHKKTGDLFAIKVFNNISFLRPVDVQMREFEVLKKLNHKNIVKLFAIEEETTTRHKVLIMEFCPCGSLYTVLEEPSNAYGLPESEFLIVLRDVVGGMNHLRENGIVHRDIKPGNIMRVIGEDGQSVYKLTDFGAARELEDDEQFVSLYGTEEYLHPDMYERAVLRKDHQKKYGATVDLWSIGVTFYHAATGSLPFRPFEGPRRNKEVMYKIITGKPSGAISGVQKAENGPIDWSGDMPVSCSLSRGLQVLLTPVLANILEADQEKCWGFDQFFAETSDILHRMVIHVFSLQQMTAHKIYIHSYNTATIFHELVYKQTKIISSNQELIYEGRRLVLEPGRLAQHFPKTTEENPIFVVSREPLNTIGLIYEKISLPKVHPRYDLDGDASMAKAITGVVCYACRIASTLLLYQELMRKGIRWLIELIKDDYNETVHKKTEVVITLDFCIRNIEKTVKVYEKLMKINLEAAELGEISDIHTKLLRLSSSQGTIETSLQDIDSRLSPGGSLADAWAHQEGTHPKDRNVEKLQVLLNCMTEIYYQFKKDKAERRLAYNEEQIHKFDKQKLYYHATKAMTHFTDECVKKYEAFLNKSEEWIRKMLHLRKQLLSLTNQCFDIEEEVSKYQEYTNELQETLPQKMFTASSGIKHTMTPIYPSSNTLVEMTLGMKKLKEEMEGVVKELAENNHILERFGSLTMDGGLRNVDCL
Procedure: Example 482: TBK Biochemical Assay
as §1, with “Greiner” for “(Greiner”
as §2, with “C. in Heidolph incubator” for “C.”, “buffer using multidrop dispenser” for “buffer”, “TBK1.job” for “IKKε. job”
as §3

Row | Structure (SMILES) | IC50 [1] [nM] | IC50 [2] [nM]
1 | C[C@@H]1COC[C@H](C)[C@H]1Oc1ccc(-c2ccnc3cc(-c4ccc(C(=O)N(C)C)cc4)oc23)cc1C#N (single isomer, unassigned) [Compound 219, 4-(7-(3-cyano-4-(3,5-dimethyl-tetrahydro-2H-pyran-4-yloxy)phenyl)furo[3,2-b]pyridin-2-yl)-N,N-dimethylbenzamide hydrochloride] | 100 to 1000 | 100 to 1000
2 | C[C@@H]1COC[C@@H](C)C1Oc1ccc(-c2ccnc3cc(-c4ccc(C(=O)N(C)C)cc4)oc23)cc1C#N (single isomer, unassigned) [Compound 220, 4-(7-(3-cyano-4-(3,5-dimethyl-tetrahydro-2H-pyran-4-yloxy)phenyl)furo[3,2-b]pyridin-2-yl)-N,N-dimethylbenzamide hydrochloride] | 100 to 1000 | 100 to 1000
3 | C[C@@H]1COC[C@H](C)[C@@H]1Oc1ccc(-c2ccnc3cc(-c4ccc(C(=O)N(C)C)cc4)oc23)cc1C#N (single isomer, unassigned) [Compound 221, 4-(7-(3-cyano-4-(3,5-dimethyl-tetrahydro-2H-pyran-4-yloxy)phenyl)furo[3,2-b]pyridin-2-yl)-N,N-dimethylbenzamide hydrochloride] | 100 to 1000 | 100 to 1000
4 | COc1cc(C(=O)N(C)C)ccc1-c1cc2nccc(-c3ccc(OC4[C@H](C)COC[C@H]4C)c(C#N)c3)c2o1 (single isomer, unassigned) [Compound 231, 4-(7-(3-cyano-4-(3,5-dimethyl-tetrahydro-2H-pyran-4-yloxy)phenyl)furo[3,2-b]pyridin-2-yl)-3-methoxy-N,N-dimethylbenzamide] | < 100 | < 100
5 | COc1cc(C(=O)N[C@@H]2CCNC[C@@H]2F)ccc1-c1cc2nccc(-c3ccc(NC4CCOCC4)c(C#N)c3)c2o1 (single isomer, unassigned) [Compound 251, 4-(7-(3-cyano-4-(tetrahydro-2H-pyran-4-ylamino)phenyl)furo[3,2-b]pyridin-2-yl)-N-(3-fluoropiperidin-4-yl)-3-methoxybenzamide hydrochloride] | < 100 | < 100
6 | COc1cc(C(=O)N[C@@H]2CCNC[C@@H]2F)ccc1-c1cc2nccc(-c3cc(F)c(NC4CCOCC4)c(C#N)c3)c2o1 (single isomer, unassigned) [Compound 253, 4-(7-(3-cyano-5-fluoro-4-(tetrahydro-2H-pyran-4-ylamino)phenyl)furo[3,2-b]pyridin-2-yl)-N-(3-fluoropiperidin-4-yl)-3-methoxybenzamide hydrochloride] | < 100 | < 100
7 | COc1cc(C(=O)N[C@@H]2CCNC[C@@H]2F)ccc1-c1cc2nccc(-c3cc(F)c(NC4CCOCC4)c(C#N)c3)c2o1 (single isomer, unassigned) [Compound 254, 4-(7-(3-cyano-5-fluoro-4-(tetrahydro-2H-pyran-4-ylamino)phenyl)furo[3,2-b]pyridin-2-yl)-N-(3-fluoropiperidin-4-yl)-3-methoxybenzamide hydrochloride] | < 100 | 100 to 1000
8 | CN(C)C(=O)c1ccc(-c2cc3nccc(-c4ccc(N5CC[C@H](F)C5)c(C#N)c4)c3o2)nc1 (single isomer, unassigned) [Compound 272, 6-(7-(3-cyano-4-(3-fluoropyrrolidin-1-yl)phenyl)furo[3,2-b]pyridin-2-yl)-N,N-dimethylnicotinamide hydrochloride] | < 100 | < 100
9 | CN(C)C(=O)c1ccc(-c2cc3nccc(-c4ccc(N5CC[C@H](F)C5)c(C#N)c4)c3o2)nc1 (single isomer, unassigned) [Compound 273, 6-(7-(3-cyano-4-(3-fluoropyrrolidin-1-yl)phenyl)furo[3,2-b]pyridin-2-yl)-N,N-dimethylnicotinamide hydrochloride] | < 100 | < 100
10 | N#Cc1cc(-c2ccnc3cc(-c4ccc(C(=O)N[C@@H]5CCNC[C@@H]5F)cc4F)oc23)ccc1NC1CCOCC1 (stereo in doubt) [Compound 252, 4-(7-(3-cyano-4-(tetrahydro-2H-pyran-4-ylamino)phenyl)furo[3,2-b]pyridin-2-yl)-3-fluoro-N-(3-fluoropiperidin-4-yl)benzamide hydrochloride] | 100 to 1000 | 100 to 1000
11 | COc1cc(C(=O)N2C3CCC2COC3)ccc1-c1cc2nccc(-c3ccc(OC4CCOCC4)c(C#N)c3)c2o1 [Compound 2, 5-{2-[2-Methoxy-4-(3-oxa-8-aza-bicyclo[3.2.1]octane-8-carbonyl)-phenyl]-furo[3,2-b]pyridin-7-yl}-2-(tetrahydro-pyran-4-yloxy)-benzonitrile] | < 100 | < 100
12 | COc1cc(C(=O)N2CC3CCC2CO3)ccc1-c1cc2nccc(-c3ccc(OC4CCOCC4)c(C#N)c3)c2o1 (stereo not drawn) [Compound 4, 5-{2-[2-Methoxy-4-(2-oxa-5-aza-bicyclo[2.2.2]octane-5-carbonyl)-phenyl]-furo[3,2-b]pyridin-7-yl}-2-(tetrahydro-pyran-4-yloxy)-benzonitrile] | < 100 | < 100
13 | COc1cc(C(=O)N2CC3CC(C2)O3)ccc1-c1cc2nccc(-c3ccc(OC4CCOCC4)c(C#N)c3)c2o1 [Compound 6, 5-{2-[2-Methoxy-4-(6-oxa-3-aza-bicyclo[3.1.1]heptane-3-carbonyl)-phenyl]-furo[3,2-b]pyridin-7-yl}-2-(tetrahydro-pyran-4-yloxy)-benzonitrile] | < 100 | < 100
14 | COc1cc(C(=O)N2CCC(OC)CC2)ccc1-c1cc2nccc(-c3ccc(OC4CCOCC4)c(C#N)c3)c2o1 [Compound 12, 5-(2-[2-Methoxy-4-(4-methoxy-piperidine-1-carbonyl)-phenyl]-furo[3,2-b]pyridin-7-yl}-2-(tetrahydro-pyran-4-yloxy)-benzonitrile] | < 100 | < 100
15 | CC1CC(Oc2ccc(-c3ccnc4cc(-c5ccc(C(=O)N(C)C)cc5)oc34)cc2C#N)CC(C)O1 (stereo not drawn) [Compound 213, 4-{7-[3-Cyano-4-(2,6-dimethyl-tetrahydro-pyran-4-yloxy)-phenyl]-furo[3,2-b]pyridin-2-yl}-N,N-dimethyl-benzamide] | > 5000 | 
16 | CN(C)C(=O)c1cnc(-c2cc3nccc(-c4cc(F)c(NC5CCOCC5)c(C#N)c4)c3o2)c(F)c1 [Compound 248, 6-(7-(3-cyano-5-fluoro-4-(tetrahydro-2H-pyran-4-ylamino)phenyl)furo[3,2-b]pyridin-2-yl)-5-fluoro-N,N-dimethylnicotinamide] | 100 to 1000 | 
